# Measured values as given in patent US10144738B2, “Pyrazolo[1,5-A]PYRAZIN-4-YL derivatives” (Pfizer Inc., priority 2016, dated 2018).
# What was measured:
# TYK2 = TYK2 (Homo sapiens (Human), UniProt P29597); test: JAK Caliper enzyme assay at 1 mM ATP (TYK2); assay type: biochemical; conditions: recombinant human kinase domain, Caliper mobility shift
# Protocol: (§1) Compounds of the invention were evaluated by in vitro methods to determine their respective ability to inhibit the JAK kinases (TYK2, JAK1, JAK2, JAK3).
# (§2) The human JAK inhibitory activity was determined by using a microfluidic assay to monitor phosphorylation of a synthetic peptide by the recombinant human kinase domain of each of the four members of the JAK family, JAK1, JAK2, JAK3 and TYK2. […] Each assay condition was optimized for enzyme concentration and room temperature incubation time to obtain a conversion rate of 20% to 30% phosphorylated peptide product. Reactions were terminated by the addition of stop buffer containing EDTA. Utilizing the LabChip 3000 mobility shift technology (Caliper Life Science), each assay reaction was sampled to determine the level of phosphorylation. This technology is separation-based, allowing direct detection of fluorescently labeled substrates and products. Separations are controlled by a combination of vacuum pressure and electric field strength optimized for each peptide substrate.
# (§3) JAK Caliper Enzyme Assay at 1 mM ATP
# (§4) Compounds were added to a 384-well plate. Reaction mixtures contained 10 mM HEPES, pH 7.4, 10 mM MgCl2, 0.01% BSA, 0.0005% Tween 20, 1 mM ATP and 1 μM peptide substrate. […] The assays were initiated by the addition of 20 nM JAK1, 1 nM JAK2, 1 nM JAK or 1 nM TYK2 enzyme and were incubated at room temperature for three hours for JAK1, 60 minutes for JAK2, 75 minutes for JAK3 or 135 minutes for TYK2. Enzyme concentrations and incubation times were optimized for each new enzyme preps and were modified slightly over time to ensure 20% to 30% phosphorylation. The assays were stopped with 15 μL of 180 mM HEPES, pH 7.4, 20 mM EDTA, and 0.2% Coating Reagent 3. The assay plates were placed on a Caliper Life Science LC3000 instrument, and each well was sampled using appropriate separation conditions to measure the unphosphorylated and phosphorylated peptide.
# (§5) The data was collected using the HTS Well Analyzer software from Caliper Life Sciences. The data output for data analysis is the percent product converted calculated on peak height (Equation 1). % product converted=100*((product)/(product+substrate)) Equation 1: […]
# (§6) The percent effect at each compound concentration was calculated based on the positive and negative control well contained within each assay plate (Equation 2). […] The negative control wells contained DMSO alone (at the same concentration as the compound wells) that was used to set the baseline activity in the assay (i.e., uninhibited JAK1, JAK2, JAK3 or TYK2). % effect=100*((sample well−negative control)/(positive control-negative control)) Equation 2: The percent effect was plotted against the compound concentration compound.
# JAK3 = JAK3 (Homo sapiens (Human), UniProt P52333); test: JAK Caliper enzyme assay at 1 mM ATP (JAK3); assay type: biochemical; conditions: recombinant human kinase domain, Caliper mobility shift
# Sequence of JAK3 (P52333 822-1111): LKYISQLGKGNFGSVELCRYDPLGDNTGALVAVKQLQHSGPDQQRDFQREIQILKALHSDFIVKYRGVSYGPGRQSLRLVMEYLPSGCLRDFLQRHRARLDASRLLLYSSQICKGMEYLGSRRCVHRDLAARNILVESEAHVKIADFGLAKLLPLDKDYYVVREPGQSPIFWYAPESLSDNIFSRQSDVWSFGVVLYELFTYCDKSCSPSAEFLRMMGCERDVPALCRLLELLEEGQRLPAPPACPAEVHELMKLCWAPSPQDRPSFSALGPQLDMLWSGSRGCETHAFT
# Protocol: as §1, §2, §3, §4, §5, §6
# JAK2 = JAK2 (Homo sapiens (Human), UniProt O60674); test: JAK Caliper enzyme assay at 1 mM ATP (JAK2); assay type: biochemical; conditions: recombinant human kinase domain, Caliper mobility shift
# Sequence of JAK2 (O60674 849-1124): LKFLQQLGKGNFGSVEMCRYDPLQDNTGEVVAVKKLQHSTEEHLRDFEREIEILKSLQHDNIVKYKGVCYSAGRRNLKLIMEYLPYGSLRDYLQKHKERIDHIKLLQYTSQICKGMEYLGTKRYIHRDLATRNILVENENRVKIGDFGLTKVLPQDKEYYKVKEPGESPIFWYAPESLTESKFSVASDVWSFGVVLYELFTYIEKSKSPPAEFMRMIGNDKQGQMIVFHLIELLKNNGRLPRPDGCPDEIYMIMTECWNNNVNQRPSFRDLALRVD
# Protocol: as §1, §2, §3, §4, §5, §6
# [1] = system: IL-12 induced STAT4 phosphorylation (IL-12 signals through TYK2 and JAK2); test: Human Whole Blood IL-12 Induced STAT4 Phosphorylation Assay; assay type: cell-based; conditions: Lymphocyte, IL-12 5 ng/mL, pSTAT4 in lymphocytes by flow cytometry, read-out: HWB IL-12 IC50
# Protocol: Selected compounds were assessed for their ability to inhibit IL-12 signaling in a human whole blood flow cytometry assay. IL-12 signals through TYK2 and JAK2. Human Whole Blood IL-12 Induced STAT4 Phosphorylation Assay
# Test articles were prepared as 30 mM stocks in DMSO. An 11-point 2.5 dilution series was created in DMSO with a top concentration of 10 mM. Further dilution was done by adding 4 μL of the above test article solutions into 96 μL of PBS with a top concentration of 400 μM. […] Blood was warmed to 37° C. prior to use. Human whole blood was aliquoted ([…]) in 96-well, deep-well, V-bottom plates and treated with compounds at 11 different concentrations (0.2% DMSO final) at 37° C. for 60 minutes. This was followed by a challenge with IL-12 ([…]; final, 5 ng/mL) for 15 minutes. Samples were treated with warm 1× Lyse/Fix buffer ([…]) to terminate activation and further incubated at 37° C. for 20 minutes to lyse red blood cells. Plates were centrifuged at 300×g for 5 minutes, supernatant was aspirated, and cells were washed with […] of staining buffer (PBS containing 0.5% fetal bovine serum and 0.01% sodium azide). The washed cell pellets were resuspended with […] of pre-chilled 90% methanol, and incubated at 4° C. for 30 minutes. Plates were centrifuged at 300×g for 5 minutes, supernatant containing 90% methanol was aspirated, and cells were washed with […]/well of staining buffer. Cell pellets were resuspended in staining buffer containing anti-pSTAT4-AlexaFluor647 (1 to 150 dilution, […]), and incubated at room temperature in the dark overnight.
# Samples were transferred to 96-well U-bottom plates and flow cytometric analysis was performed on a FACSCalibur or LSRFortessa equipped with a HTS plate loader (BD Biosciences). The lymphocyte population was gated for histogram analysis of pSTAT4. Background fluorescence was defined using unstimulated cells and a gate was placed at the foot of the peak to include ˜0.5% gated population. The histogram statistical analysis was performed using CellQuestO Pro version 5.2.1 (BD Biosciences) or FACSDiva version 6.2 (BD Biosciences) software. Relative fluorescence unit (RFU), which measures the level of phospho STAT4, was calculated by multiplying the percent positive population and its mean fluorescence. Data from 11 compound concentrations (singlicate at each concentration) was normalized as a percentage of control based on the formula: % of Control=100×(A−B)/(C−B) where A is the RFU from wells containing compound and IL-12, B is the RFU from wells without IL-12 and compound (minimum fluorescence) and C is the RFU from wells containing only IL-12 (maximum fluorescence). Inhibition curves and IC50 values were determined using the Prism version 5 software (GraphPad, La Jolla, Calif.).
# JAK1 = JAK1 (Homo sapiens (Human), UniProt P23458); test: JAK Caliper enzyme assay at 1 mM ATP (JAK1); assay type: biochemical; conditions: recombinant human kinase domain, Caliper mobility shift
# Sequence of JAK1 (P23458 875-1153): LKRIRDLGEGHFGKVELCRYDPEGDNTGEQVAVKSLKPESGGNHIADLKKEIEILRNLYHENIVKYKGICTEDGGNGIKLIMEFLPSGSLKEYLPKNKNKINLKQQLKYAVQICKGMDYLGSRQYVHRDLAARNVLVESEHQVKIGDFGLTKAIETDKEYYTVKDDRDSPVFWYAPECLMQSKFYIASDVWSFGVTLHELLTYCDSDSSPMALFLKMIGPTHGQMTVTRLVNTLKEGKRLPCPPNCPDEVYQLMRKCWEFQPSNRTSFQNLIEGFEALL
# Protocol: Compounds of the invention were evaluated by in vitro methods to determine their respective ability to inhibit the JAK kinases (TYK2, JAK1, JAK2, JAK3). The human JAK inhibitory activity was determined by using a microfluidic assay to monitor phosphorylation of a synthetic peptide by the recombinant human kinase domain of each of the four members of the JAK family, JAK1, JAK2, JAK3 and TYK2. […] Reactions were terminated by the addition of stop buffer containing EDTA. Utilizing the LabChip 3000 mobility shift technology (Caliper Life Science), each assay reaction was sampled to determine the level of phosphorylation. This technology is separation-based, allowing direct detection of fluorescently labeled substrates and products. Separations are controlled by a combination of vacuum pressure and electric field strength optimized for each peptide substrate. […] Compounds were added to a 384-well plate. […] Enzyme concentrations and incubation times were optimized for each new enzyme preps and were modified slightly over time to ensure 20% to 30% phosphorylation. […] The assay plates were placed on a Caliper Life Science LC3000 instrument, and each well was sampled using appropriate separation conditions to measure the unphosphorylated and phosphorylated peptide. The data was collected using the HTS Well Analyzer software from Caliper Life Sciences. […] The percent effect at each compound concentration was calculated based on the positive and negative control well contained within each assay plate (Equation 2). […] The percent effect was plotted against the compound concentration compound. […] Where max is the maximum asymptote (complete inhibition), min is the minimum asymptote (no inhibition) and s is the slope factor.
# Sequence of TYK2 (P29597 897-1176): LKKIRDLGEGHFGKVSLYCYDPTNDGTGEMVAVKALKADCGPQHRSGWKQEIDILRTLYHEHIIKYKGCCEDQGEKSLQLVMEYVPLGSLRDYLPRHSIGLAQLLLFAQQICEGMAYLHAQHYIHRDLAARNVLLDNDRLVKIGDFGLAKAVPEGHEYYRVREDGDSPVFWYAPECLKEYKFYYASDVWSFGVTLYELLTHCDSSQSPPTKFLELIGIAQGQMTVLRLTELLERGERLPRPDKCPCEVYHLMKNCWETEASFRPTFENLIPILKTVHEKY
Compound,IC50 (TYK2) [nM],IC50 (JAK3) [nM],IC50 (JAK2) [nM],IC50 [1] [nM],IC50 (JAK1) [nM]
"CO[C@H]1C[C@@](CC#N)(n2cc(-c3nc(-c4cc(CO)[nH]n4)cn4nccc34)cn2)C1 [Example 27, 2-((1 s,3r)-1-(4-(6-(5-(Hydroxymethyl)-1H-pyrazol-3-yl)pyrazolo[1,5-a]pyrazin-4-yl)-1H-pyrazol-1-yl)-3-methoxycyclobutyl)acetonitrile]",24,> 10000,171,86,737
CO[C@H]1C[C@@](CC#N)(n2cc(-c3nc(-c4cc(C(N)=O)n[nH]4)cn4nccc34)cn2)C1 [Example 32],17,> 10000,339,130,2250
"Cc1cnn2cc(-c3cnn(C)c3)nc(-c3cnn([C@]4(CC#N)C[C@@H](C#N)C4)c3)c12 [Example 25, (1r,3r)-3-(Cyanomethyl)-3-(4-(3-methyl-6-(1-methyl-1H-pyrazol-4-yl)pyrazolo[1,5-a]pyrazin-4-yl)-1H-pyrazol-1-yl)cyclobutane-1-carbonitrile]",23,> 10000,99,59,319

# Compounds with a lower IC50 (TYK2), results first:
IC50 (TYK2) [nM],IC50 (JAK3) [nM],IC50 (JAK2) [nM],IC50 [1] [nM],IC50 (JAK1) [nM],Compound
9,9410,26,34,431,"Cn1cc(-c2cn3nccc3c(-c3cnn([C@]4(CC#N)C[C@@H](C#N)C4)c3)n2)c(N)n1 [Example 23, (1r,3r)-3-(4-(6-(3-Amino-1-methyl-1H-pyrazol-4-yl)pyrazolo[1,5-a]pyrazin-4-yl)-1H-pyrazol-1-yl)-3-(cyanomethyl)cyclobutane-1-carbonitrile]"
7,> 10000,71,46,174,"CO[C@H]1C[C@](CC#N)(n2cc(-c3nc(-c4cc(N)[nH]n4)cn4nccc34)cn2)C1 [Example 30, 2-((1r,3s)-1-(4-(6-(3-Amino-1H-pyrazol-5-yl)pyrazolo[1,5-a]pyrazin-4-yl)-1H-pyrazol-1-yl)-3-methoxycyclobutyl)acetonitrile]"
7,6680,37,41,250,"Cn1cc(-c2cn3nccc3c(-c3cnn(C4(CC#N)CN(CC#N)C4)c3)n2)cn1 [Example 7, 2,2′-(3-(4-(6-(1-Methyl-1H-pyrazol-4-yl)pyrazolo[1,5-a]pyrazin-4-yl)-1H-pyrazol-1-yl)azetidine-1,3-diyl)diacetonitrile]"
